Patent US6624140B1, “Synthetic peptides with antimicrobial and endotoxin neutralizing properties for management of the sepsis syndrome” (Academisch Ziekenhuis Bij de Universiteit van Amsterdam …, priority 1997, dated 2003)
No end group written: not given here.

Columns and labels:
[1] = system: Escherichia coli strain 018:K1:H7 Bort; assay: Murine model of lethal peritonitis; assay type: in vivo, mice; conditions: at 7 days; 100 μg/mouse (4 mg/kg) 1 h after 10^4 CFU i.p.; two experiments combined
Procedure: FIG. 14. Efficacy of synthetic peptide BP2 on survival in a murine model of lethal peritonitis. Outbred female Swiss-Webster mice of 7 to 8 weeks, weighing 28 to 30 g were administered a predetermined lethal dose of 104 colony forming units (CFU) of the pathogenic strain of live E. coli […] Bort organisms by intraperitoneal (i.p.) administration in 0.5 ml pyrogen-free saline. After a delay of 1 h after infection, treated groups of mice received synthetic BP2 peptide in p.f saline at a dosage of 100 μg/mouse (approximately 4 mg/kg) and negative control groups only saline. Survival was recorded at 12 or 24 h intervals during a 7 day period of observation. […]
The efficacy of the peptides of the invention in the protection of experimental animals against the toxic effects of LPS or live pathogenic bacteria was investigated with the use of murine models of lethal endotoxemia and peritonitis Laboratory mice, which are normally tolerant to high doses of endotoxin and require a lethal dose (LD100) of approximately 1 mg, may be sensitized with Actinomycin D to 10,000×lower amounts of endotoxin for lethality. […] The survival of the treated animals was recorded at 24 h intervals during a seven day period of observation and compared with the control groups. […] The survival of the animals was recorded at 12 or 24 h intervals during a 7 day period of observation and compared with the control groups. […]

[2] = Capture of TAG-labeled endotoxin by immobilized peptide (ECL); assay type: binding, Escherichia coli; conditions: biotinylated BP2 on streptavidin beads; TAG-labeled J5 LPS
Procedure: FIGS. 5A and 5B. Capture of labeled endotoxin by immobilized synthetic peptide. 2 ng of biotinylated synthetic peptide BP2, immobilized on 20 μg of streptavidin-coated supramagnetic polystyrene beads (Dynabeads M-280, Dynal A. S., Oslo, Norway) was incubated with the indicated amounts of chemiluminescent TAG-labeled E. coli J5 LPS for 20 min at 23° C. The amount of captured endotoxin, after a washing cycle with Phosphate buffer containing 0.1% (v/v) Triton X100, was determined by electochemiluminescence detection (ECL) using an Origen Analyser (Igen Inc., Rockville, Mass.). […] The values are the means of triplicate determinations corrected for non-specific binding.
Capture of the TAG labeled J5 LPS by immobilized synthetic peptide was quantitated by electrochemiluminescence detection subsequent to washing steps with phosphate buffer containing 0.1% (w/v) Triton X100 to remove excess unbound LPS. […] This confirms the high capacity of immobilized peptides of the invention for endotoxin in solution. […] LPS with high affinity and are universal lipid A binding ligands. The above mentioned microplate experiments were employed to determine the endotoxin binding activity and specificity of the synthetic peptides and formed the basis for the development of a novel highly sensitive endotoxin assay. […] The same degree of concentration-dependent inhibition was observed when various amounts of added endotoxin were assayed directly in plasma dilutions.

TNF-α production = assay: TNF-α in whole blood ex vivo, peptide added before LPS challenge; assay type: cell-based, human
Procedure: FIG. 12. Effect of pre-challenge addition of synthetic peptides on TNF-a levels induced by E. coli 0111:B4 LPS in whole blood ex vivo. The synthetic peptides BP2, BP2.1 or BP2.2 were added to whole blood containing heparin at 2 I.U/ml at the concentrations indicated and incubated for 10 min at 37° C. TNF-α concentrations were measured after incubation for 4 h at 37° C. subsequent to addition of E. coli 0111:B4 LPS at 1 ng/ml. The values represent the means of triplicate experiments. Controls only contained added LPS.
To determine whether addition of synthetic peptide to whole blood ex vivo prior to endotoxin challenge was effective in endotoxin neutralization assayed in terms of cytokine production, a synthetic peptide of the invention BP2, and the analogues BP2.1 or BP2.2 were added at concentrations of 2.5 to 20 μg/ml to whole blood and incubated for 10 min at 37° C. prior to the addition of 1 ng/ml E. coli 0111:B4 LPS. TNF-α concentrations were determined as previously described. […] The structurally related LPS-binding synthetic peptide analogues BP2.1 and BP2.2 were ineffective in endotoxin neutralization under these conditions.

GKWKLFKKAFKKFLKILAC-OH [BP2, Gly-Lys-Trp-Lys-Leu-Phe-Lys-Lys-Ala-Phe-Lys-Lys-Phe-Leu-Lys-Ile-Leu-Ala-Cys]
survival [1]: 78.5%
molar excess of LPS up to which binding response is linear [2]: 2 fold
molar excess of endotoxin at saturation [2]: 8 fold
stochiometric ratio of peptide to LPS up to which capture is linear [2]: 1 to 2
endotoxin neutralization (TNF-α production) (TNF-α production; 2.5 to 20 μg/ml added 10 min before 1 ng/ml LPS): dose-dependent inhibition
inhibition of cytokine (TNF-α) production (TNF-α production; peptide 20 μg/ml added 10 min before 1 ng/ml LPS): 57%
